Measurements reported in ChEMBL document CHEMBL5291721, “A preclinical secondary pharmacology resource illuminates target-adverse drug reaction associations of marketed drugs” (Nat Commun, 2023).

Assays:
[1] = target: D(3) dopamine receptor (Homo sapiens, UniProt P35462)
[2] = target: T1, Amine oxidase [flavin-containing] A (Homo sapiens, UniProt P21397); format: functional
T1 sequence (P21397 whole entry): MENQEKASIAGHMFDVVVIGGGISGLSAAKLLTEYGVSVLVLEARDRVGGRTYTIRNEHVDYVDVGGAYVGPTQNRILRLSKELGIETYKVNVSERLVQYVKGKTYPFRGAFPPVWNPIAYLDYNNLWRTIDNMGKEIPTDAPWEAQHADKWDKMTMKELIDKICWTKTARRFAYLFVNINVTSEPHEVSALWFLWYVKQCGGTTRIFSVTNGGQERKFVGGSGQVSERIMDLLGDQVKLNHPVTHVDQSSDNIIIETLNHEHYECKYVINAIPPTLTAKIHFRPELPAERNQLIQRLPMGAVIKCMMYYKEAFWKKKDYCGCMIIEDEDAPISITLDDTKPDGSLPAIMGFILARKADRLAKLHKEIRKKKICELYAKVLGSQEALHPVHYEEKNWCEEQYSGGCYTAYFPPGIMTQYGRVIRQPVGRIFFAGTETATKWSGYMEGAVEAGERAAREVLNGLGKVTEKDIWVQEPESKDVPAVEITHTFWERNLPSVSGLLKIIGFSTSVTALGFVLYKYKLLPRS

[3] = target: 3',5'-cyclic-AMP phosphodiesterase 4D (Homo sapiens, UniProt Q08499); format: functional
[4] = target: T2, 5-hydroxytryptamine receptor 1A (Homo sapiens, UniProt P08908); format: functional, cell-based
T2 sequence (P08908 whole entry): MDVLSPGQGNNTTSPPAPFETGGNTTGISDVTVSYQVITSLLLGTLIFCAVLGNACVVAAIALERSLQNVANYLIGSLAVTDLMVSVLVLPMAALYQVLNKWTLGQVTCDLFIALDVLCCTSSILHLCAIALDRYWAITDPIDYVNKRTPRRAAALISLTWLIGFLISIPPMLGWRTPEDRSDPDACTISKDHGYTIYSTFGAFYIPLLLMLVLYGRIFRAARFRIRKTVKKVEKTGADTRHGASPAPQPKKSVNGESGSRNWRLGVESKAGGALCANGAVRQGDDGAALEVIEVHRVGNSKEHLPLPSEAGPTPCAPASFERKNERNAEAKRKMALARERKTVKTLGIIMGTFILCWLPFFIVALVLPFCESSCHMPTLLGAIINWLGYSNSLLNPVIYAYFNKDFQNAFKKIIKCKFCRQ

[5] = target: Histamine H2 receptor (Homo sapiens, UniProt P25021); format: functional, cell-based
[6] = target: cGMP-inhibited 3',5'-cyclic phosphodiesterase 3A (Homo sapiens, UniProt Q14432); format: functional
[7] = target: Melanocortin receptor 3 (Homo sapiens, UniProt P41968)
[8] = target: T3, Adenosine receptor A3 (Homo sapiens, UniProt P0DMS8)
T3 sequence (P0DMS8 whole entry): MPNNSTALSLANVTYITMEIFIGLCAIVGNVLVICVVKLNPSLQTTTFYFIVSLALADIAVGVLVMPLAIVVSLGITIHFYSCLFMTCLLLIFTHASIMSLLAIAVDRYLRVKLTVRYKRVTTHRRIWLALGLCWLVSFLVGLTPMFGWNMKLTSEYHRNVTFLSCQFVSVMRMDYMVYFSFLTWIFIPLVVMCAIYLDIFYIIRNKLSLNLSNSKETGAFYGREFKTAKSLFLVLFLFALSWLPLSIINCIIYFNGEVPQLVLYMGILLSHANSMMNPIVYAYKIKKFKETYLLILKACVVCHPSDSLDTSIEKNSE

[9] = target: T4, Progesterone receptor (Homo sapiens, UniProt P06401); format: functional
T4 sequence (P06401 whole entry): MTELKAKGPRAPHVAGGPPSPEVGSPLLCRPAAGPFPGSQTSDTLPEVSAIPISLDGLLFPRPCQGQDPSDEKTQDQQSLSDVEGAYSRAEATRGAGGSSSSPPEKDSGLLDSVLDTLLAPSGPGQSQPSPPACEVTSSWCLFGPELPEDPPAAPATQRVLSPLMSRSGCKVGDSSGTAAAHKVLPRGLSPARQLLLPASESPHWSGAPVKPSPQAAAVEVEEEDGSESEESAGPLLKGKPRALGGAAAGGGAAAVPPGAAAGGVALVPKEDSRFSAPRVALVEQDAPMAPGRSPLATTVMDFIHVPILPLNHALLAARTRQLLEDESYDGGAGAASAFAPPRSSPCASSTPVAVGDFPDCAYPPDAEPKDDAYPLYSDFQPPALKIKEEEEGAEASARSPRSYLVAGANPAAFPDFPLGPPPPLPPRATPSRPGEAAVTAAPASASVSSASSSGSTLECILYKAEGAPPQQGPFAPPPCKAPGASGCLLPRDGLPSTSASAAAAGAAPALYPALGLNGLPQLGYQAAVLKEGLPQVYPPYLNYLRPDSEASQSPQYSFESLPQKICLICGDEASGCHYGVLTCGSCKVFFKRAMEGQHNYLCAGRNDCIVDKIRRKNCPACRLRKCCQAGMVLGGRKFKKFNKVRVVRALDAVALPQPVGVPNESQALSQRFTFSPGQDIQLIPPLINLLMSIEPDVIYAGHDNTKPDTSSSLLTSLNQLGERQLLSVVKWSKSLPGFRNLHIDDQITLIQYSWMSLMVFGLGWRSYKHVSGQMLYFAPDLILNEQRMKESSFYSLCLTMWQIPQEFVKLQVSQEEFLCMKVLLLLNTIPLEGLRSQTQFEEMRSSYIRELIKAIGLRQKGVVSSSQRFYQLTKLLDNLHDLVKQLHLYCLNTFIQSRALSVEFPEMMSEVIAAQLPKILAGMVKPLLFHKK

[10] = target: Voltage-dependent L-type calcium channel subunit alpha-1C (Rattus norvegicus, UniProt P22002); format: functional
Note: assay procedure not described here.

Chain of D(3) dopamine receptor (P35462 whole entry): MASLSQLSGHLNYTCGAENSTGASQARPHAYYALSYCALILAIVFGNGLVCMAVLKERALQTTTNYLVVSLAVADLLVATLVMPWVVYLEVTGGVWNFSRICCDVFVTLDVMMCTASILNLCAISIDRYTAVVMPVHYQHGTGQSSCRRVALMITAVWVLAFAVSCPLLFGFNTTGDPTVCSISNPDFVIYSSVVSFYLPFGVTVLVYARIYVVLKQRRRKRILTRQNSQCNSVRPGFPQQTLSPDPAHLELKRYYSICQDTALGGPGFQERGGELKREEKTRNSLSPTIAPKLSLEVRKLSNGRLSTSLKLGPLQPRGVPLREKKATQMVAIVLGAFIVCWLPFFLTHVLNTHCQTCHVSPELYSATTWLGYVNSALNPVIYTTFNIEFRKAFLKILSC
Chain of 3',5'-cyclic-AMP phosphodiesterase 4D (Q08499 whole entry): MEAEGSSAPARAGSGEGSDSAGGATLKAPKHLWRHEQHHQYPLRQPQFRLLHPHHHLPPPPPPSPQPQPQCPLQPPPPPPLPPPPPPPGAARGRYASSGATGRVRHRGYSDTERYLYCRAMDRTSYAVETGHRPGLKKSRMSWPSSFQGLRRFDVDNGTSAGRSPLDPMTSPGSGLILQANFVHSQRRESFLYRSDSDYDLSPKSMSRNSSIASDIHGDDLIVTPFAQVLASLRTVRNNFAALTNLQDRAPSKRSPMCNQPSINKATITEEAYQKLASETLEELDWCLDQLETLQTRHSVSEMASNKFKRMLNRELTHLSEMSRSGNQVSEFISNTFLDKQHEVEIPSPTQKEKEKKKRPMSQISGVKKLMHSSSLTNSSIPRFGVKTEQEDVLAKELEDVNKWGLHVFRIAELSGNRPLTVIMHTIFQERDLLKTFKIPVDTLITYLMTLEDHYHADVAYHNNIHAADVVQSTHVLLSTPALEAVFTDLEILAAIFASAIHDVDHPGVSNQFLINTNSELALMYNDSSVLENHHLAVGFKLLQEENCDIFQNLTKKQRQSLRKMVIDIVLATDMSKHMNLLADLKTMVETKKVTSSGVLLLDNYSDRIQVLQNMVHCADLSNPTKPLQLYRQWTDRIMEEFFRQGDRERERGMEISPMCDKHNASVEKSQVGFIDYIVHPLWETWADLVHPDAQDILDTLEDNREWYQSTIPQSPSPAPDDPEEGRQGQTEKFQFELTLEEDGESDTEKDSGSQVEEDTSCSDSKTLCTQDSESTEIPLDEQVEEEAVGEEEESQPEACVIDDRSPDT
Chain of Melanocortin receptor 3 (P41968 whole entry): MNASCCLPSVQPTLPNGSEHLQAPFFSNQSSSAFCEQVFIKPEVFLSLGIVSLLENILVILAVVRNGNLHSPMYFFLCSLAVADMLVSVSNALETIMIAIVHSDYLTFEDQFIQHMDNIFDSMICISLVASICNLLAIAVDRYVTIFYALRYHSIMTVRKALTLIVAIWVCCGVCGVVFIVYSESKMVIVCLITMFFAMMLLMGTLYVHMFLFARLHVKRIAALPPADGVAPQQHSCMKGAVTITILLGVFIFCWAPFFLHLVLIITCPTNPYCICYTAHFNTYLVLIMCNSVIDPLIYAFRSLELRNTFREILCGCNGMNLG
Chain of Histamine H2 receptor (P25021 whole entry): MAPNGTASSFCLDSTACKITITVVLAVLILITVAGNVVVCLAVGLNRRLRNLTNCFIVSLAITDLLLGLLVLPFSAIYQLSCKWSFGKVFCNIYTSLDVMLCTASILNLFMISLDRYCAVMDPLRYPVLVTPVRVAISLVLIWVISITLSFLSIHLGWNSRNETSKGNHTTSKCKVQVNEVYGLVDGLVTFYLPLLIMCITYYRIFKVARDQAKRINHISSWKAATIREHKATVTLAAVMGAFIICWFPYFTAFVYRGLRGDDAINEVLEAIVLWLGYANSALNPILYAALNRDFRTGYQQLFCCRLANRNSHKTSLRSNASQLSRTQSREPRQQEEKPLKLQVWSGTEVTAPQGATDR
Chain of cGMP-inhibited 3',5'-cyclic phosphodiesterase 3A (Q14432 whole entry): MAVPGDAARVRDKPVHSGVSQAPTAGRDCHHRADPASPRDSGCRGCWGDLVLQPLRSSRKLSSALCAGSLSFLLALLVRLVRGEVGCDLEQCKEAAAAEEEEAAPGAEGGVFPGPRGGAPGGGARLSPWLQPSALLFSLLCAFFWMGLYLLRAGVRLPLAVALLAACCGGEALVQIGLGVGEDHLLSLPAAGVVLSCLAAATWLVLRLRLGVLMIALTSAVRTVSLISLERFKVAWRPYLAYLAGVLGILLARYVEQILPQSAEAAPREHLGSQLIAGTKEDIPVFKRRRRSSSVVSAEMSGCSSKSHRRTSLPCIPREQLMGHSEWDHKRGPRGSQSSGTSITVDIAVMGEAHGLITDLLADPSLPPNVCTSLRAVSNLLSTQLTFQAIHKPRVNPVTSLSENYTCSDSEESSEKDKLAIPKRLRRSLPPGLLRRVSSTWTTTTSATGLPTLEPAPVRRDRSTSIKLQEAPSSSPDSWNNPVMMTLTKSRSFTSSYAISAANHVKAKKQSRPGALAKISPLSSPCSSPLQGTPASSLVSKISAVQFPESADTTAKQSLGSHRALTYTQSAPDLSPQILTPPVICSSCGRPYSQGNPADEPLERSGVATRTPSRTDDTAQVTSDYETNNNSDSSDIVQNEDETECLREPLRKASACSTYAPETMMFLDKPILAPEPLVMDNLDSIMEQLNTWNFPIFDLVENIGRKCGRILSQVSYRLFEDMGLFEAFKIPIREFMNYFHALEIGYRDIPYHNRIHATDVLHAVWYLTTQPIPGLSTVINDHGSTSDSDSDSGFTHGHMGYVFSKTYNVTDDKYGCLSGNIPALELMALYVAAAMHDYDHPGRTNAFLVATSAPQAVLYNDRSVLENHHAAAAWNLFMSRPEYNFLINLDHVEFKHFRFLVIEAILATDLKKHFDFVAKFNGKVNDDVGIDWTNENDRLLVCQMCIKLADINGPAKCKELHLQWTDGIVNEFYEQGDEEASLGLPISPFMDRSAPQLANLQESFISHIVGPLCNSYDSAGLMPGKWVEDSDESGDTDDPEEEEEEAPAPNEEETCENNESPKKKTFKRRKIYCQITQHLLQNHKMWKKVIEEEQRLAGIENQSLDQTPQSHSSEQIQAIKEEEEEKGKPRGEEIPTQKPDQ

| Structure (SMILES) | AC50 [1] [µM] | AC50 [2] [µM] | AC50 [3] [µM] | AC50 [4] [µM] | AC50 [5] [µM] | AC50 [6] [µM] | AC50 [7] [µM] | AC50 [8] [µM] | AC50 [9] [µM] | AC50 [10] [µM] |
| --- | --- | --- | --- | --- | --- | --- | --- | --- | --- | --- |
| CO[C@H]1C[C@H](O[C@H]2CC[C@@]3(C)[C@H](CC[C@@H]4[C@@H]3CC[C@]3(C)[C@@H](C5=CC(=O)OC5)[C@@H](OC(C)=O)C[C@]43O)C2)O[C@@H](C)[C@@H]1O [OLEANDRIN] | > 30 | > 30 | > 30 | > 30 | > 30 | > 30 | – | – | – | – |
| O=c1[nH]c2ccccc2n1CCCN1CCN(C(c2ccccc2)c2ccccc2)CC1 [OXATOMIDE] | 0.13 | > 30 | > 30 | > 30 | > 30 | > 30 | > 30 | 15 | > 30 | – |
| C[C@]12C/C(=C/O)C(=O)C[C@@H]1CC[C@@H]1[C@@H]2CC[C@@]2(C)[C@H]1CC[C@]2(C)O [OXYMETHOLONE] | > 30 | > 30 | > 30 | > 30 | > 30 | > 30 | > 30 | 8.2 | 23 | – |
| COc1cc2[nH]c(C)c(CCN3CCN(c4ccccc4)CC3)c2cc1OC [OXYPERTINE] | > 10 | > 30 | 9.8 | > 30 | > 30 | > 30 | > 30 | 20 | > 30 | – |
| Fc1ccc([C@@H]2CCNC[C@H]2COc2ccc3c(c2)OCO3)cc1 [PAROXETINE] | > 10 | > 10 | > 30 | 17 | – | > 30 | > 30 | 22.5 | – | 2.5 |
| c1ccc(C2(N3CCCCC3)CCCCC2)cc1 [PHENCYCLIDINE] | > 30 | > 30 | > 30 | > 30 | > 30 | > 30 | > 30 | > 30 | > 30 | – |
| COc1cc(C(=O)OCc2cccc(COC(=O)c3cc(OC)c(OC)c(OC)c3)n2)cc(OC)c1OC [PIROZADIL] | > 30 | > 30 | > 30 | > 30 | > 30 | > 30 | > 30 | > 30 | > 30 | – |
| CCN1CCCC1CNC(=O)c1cc(S(=O)(=O)CC)ccc1OC (stereo not drawn) [SULTOPRIDE] | > 30 | > 30 | > 30 | > 30 | > 30 | > 30 | > 30 | > 30 | > 30 | – |
| CCOC(=O)[C@@H](N)Cc1ccc(-c2cc(O[C@H](c3ccc(Cl)cc3-n3ccc(C)n3)C(F)(F)F)nc(N)n2)cc1 [TELOTRISTAT ETHYL] | > 30 | > 30 | 5 | – | > 30 | > 30 | 12 | 3.1 | > 30 | – |
| CCCCCCCC(=O)CC[C@@H]1[C@@H](C/C=C\CCCC(=O)OC(C)C)[C@@H](O)C[C@H]1O [UNOPROSTONE ISOPROPYL] | > 30 | > 30 | 9.6 | – | – | > 30 | 27 | 5.6 | > 30 | – |
